Values after ≈ are worked out from the molar mass of the structure shown.
Key:
C. pylori EI-925 = assay: MIC by agar dilution method, C. pylori clinical isolate EI-925; type: cell-based; settings: Helicobacter pylori, EI925, 72 h; EI-925, clinical isolate; in vitro, 37° C., pH 7.0, 3 days, microaerophilic; read-out: antibiotic activity (MIC)
C. pylori NCTC11916 = assay: MIC by agar dilution method, C. pylori standard strain NCTC11916; type: cell-based; settings: Helicobacter pylori, 72 h, in vitro, 37° C., pH 7.0, 3 days, microaerophilic, read-out: antibiotic activity (MIC)
C. pylori EI-2 = assay: MIC by agar dilution method, C. pylori clinical isolate EI-2; type: cell-based; settings: Helicobacter pylori, EI2, 72 h; EI-2, clinical isolate; in vitro, 37° C., pH 7.0, 3 days, microaerophilic; read-out: antibiotic activity (MIC)
C. pylori EI-930 = assay: MIC by agar dilution method, C. pylori clinical isolate EI-930; type: cell-based; settings: Helicobacter pylori, EI930, 72 h; EI-930, clinical isolate; in vitro, 37° C., pH 7.0, 3 days, microaerophilic; read-out: antibiotic activity (MIC)
C. pylori EI-467 = assay: MIC by agar dilution method, C. pylori clinical isolate EI-467; type: cell-based; settings: Helicobacter pylori, EI467, 72 h; EI-467, clinical isolate; in vitro, 37° C., pH 7.0, 3 days, microaerophilic; read-out: antibiotic activity (MIC)
C. pylori EI-612 = assay: MIC by agar dilution method, C. pylori clinical isolate EI-612; type: cell-based; settings: Helicobacter pylori, EI612, 72 h; EI-612, clinical isolate; in vitro, 37° C., pH 7.0, 3 days, microaerophilic; read-out: antibiotic activity (MIC)
C. pylori EI-393 = assay: MIC by agar dilution method, C. pylori clinical isolate EI-393; type: cell-based; settings: Helicobacter pylori, EI393, 72 h; EI-393, clinical isolate; in vitro, 37° C., pH 7.0, 3 days, microaerophilic; read-out: antibiotic activity (MIC)
C. pylori EI-933 = assay: MIC by agar dilution method, C. pylori clinical isolate EI-933; type: cell-based; settings: Helicobacter pylori, EI933, 72 h; EI-933, clinical isolate; in vitro, 37° C., pH 7.0, 3 days, microaerophilic; read-out: antibiotic activity (MIC)
C. pylori EI-391 = assay: MIC by agar dilution method, C. pylori clinical isolate EI-391; type: cell-based; settings: Helicobacter pylori, EI391, 72 h; EI-391, clinical isolate (resistant); in vitro, 37° C., pH 7.0, 3 days, microaerophilic; read-out: antibiotic activity (MIC)
C. pylori EI-46 = assay: MIC by agar dilution method, C. pylori clinical isolate EI-46; type: cell-based; settings: Helicobacter pylori, EI46, 72 h; EI-46, clinical isolate (resistant); in vitro, 37° C., pH 7.0, 3 days, microaerophilic; read-out: antibiotic activity (MIC)
C. pylori NCTC11637 = assay: MIC by agar dilution method, C. pylori standard strain NCTC11637; type: cell-based; settings: Helicobacter pylori, 72 h, in vitro, 37° C., pH 7.0, 3 days, microaerophilic, read-out: antibiotic activity (MIC)
C. pylori EI-429 = assay: MIC by agar dilution method, C. pylori clinical isolate EI-429; type: cell-based; settings: Helicobacter pylori, EI429, 72 h; EI-429, clinical isolate; in vitro, 37° C., pH 7.0, 3 days, microaerophilic; read-out: antibiotic activity (MIC)
C. pylori EI-5 = assay: MIC by agar dilution method, C. pylori clinical isolate EI-5; type: cell-based; settings: Helicobacter pylori, EI5, 72 h; EI-5, clinical isolate; in vitro, 37° C., pH 7.0, 3 days, microaerophilic; read-out: antibiotic activity (MIC)
C. pylori EI-36 = assay: MIC by agar dilution method, C. pylori clinical isolate EI-36; type: cell-based; settings: Helicobacter pylori, EI36, 72 h; EI-36, clinical isolate; in vitro, 37° C., pH 7.0, 3 days, microaerophilic; read-out: antibiotic activity (MIC)
C. pylori EI-397 = assay: MIC by agar dilution method, C. pylori clinical isolate EI-397; type: cell-based; settings: Helicobacter pylori, EI397, 72 h; EI-397, clinical isolate; in vitro, 37° C., pH 7.0, 3 days, microaerophilic; read-out: antibiotic activity (MIC)
[1] = test system: C. pylori NCTC-11916, NCTC-11637, PCL-56, CPY-0011-1, KS-13, CLO-1 and CLO-6; settings: standard strains and clinical isolates; JP-A 3-173817; cited from earlier work

Compound | MIC (C. pylori EI-925) [µg/mL] | MIC (C. pylori NCTC11916) [µg/mL] | MIC (C. pylori EI-2) [µg/mL] | MIC (C. pylori EI-930) [µg/mL] | MIC (C. pylori EI-467) [µg/mL] | MIC (C. pylori EI-612) [µg/mL] | MIC (C. pylori EI-393) [µg/mL] | MIC (C. pylori EI-933) [µg/mL] | MIC (C. pylori EI-391) [µg/mL] | MIC (C. pylori EI-46) [µg/mL] | MIC (C. pylori NCTC11637) [µg/mL] | MIC (C. pylori EI-429) [µg/mL] | MIC (C. pylori EI-5) [µg/mL] | MIC (C. pylori EI-36) [µg/mL] | MIC (C. pylori EI-397) [µg/mL] | antibiotic activity [1]
CC[C@H]1OC(=O)[C@H](C)[C@@H](O[C@H]2C[C@@](C)(OC)[C@@H](O)[C@H](C)O2)[C@H](C)[C@@H](O[C@@H]2O[C@H](C)C[C@H](N(C)C)[C@H]2O)[C@](C)(O)C[C@@H](C)/C(=N\OCOCCOC)[C@H](C)[C@@H](O)[C@]1(C)O [(VI), roxithromycin] | 0.2 (≈ 0.239 µM) | 0.1 (≈ 0.119 µM) | 0.2 (≈ 0.239 µM) | 0.4 (≈ 0.478 µM) | 0.2 (≈ 0.239 µM) | 0.2 (≈ 0.239 µM) | 0.2 (≈ 0.239 µM) | 0.1 (≈ 0.119 µM) | 50 (≈ 59.7 µM) | > 100 | 0.4 (≈ 0.478 µM) | 0.2 (≈ 0.239 µM) | 0.2 (≈ 0.239 µM) | 0.2 (≈ 0.239 µM) | 0.2 (≈ 0.239 µM) | 
CC1(C)S[C@@H]2[C@H](NC(=O)[C@H](N)c3ccccc3)C(=O)N2[C@H]1C(=O)O [(VII), ampicillin] | 0.2 (≈ 0.572 µM) | 0.05 (≈ 0.143 µM) | 0.4 (≈ 1.14 µM) | 0.4 (≈ 1.14 µM) | 0.05 (≈ 0.143 µM) | 0.05 (≈ 0.143 µM) | 0.1 (≈ 0.286 µM) | 0.05 (≈ 0.143 µM) | 0.1 (≈ 0.286 µM) | 0.05 (≈ 0.143 µM) | 0.4 (≈ 1.14 µM) | 0.2 (≈ 0.572 µM) | 0.4 (≈ 1.14 µM) | 0.2 (≈ 0.572 µM) | 0.1 (≈ 0.286 µM) | 
CC1COc2c(N3CCN(C)CC3)c(F)cc3c(=O)c(C(=O)O)cn1c23 (stereo not drawn) [(VIII), ofloxacin] | 0.4 (≈ 1.11 µM) | 0.8 (≈ 2.21 µM) | 0.8 (≈ 2.21 µM) | 0.8 (≈ 2.21 µM) | 0.4 (≈ 1.11 µM) | 0.8 (≈ 2.21 µM) | 0.8 (≈ 2.21 µM) | 0.4 (≈ 1.11 µM) | 25 (≈ 69.2 µM) | 3.13 (≈ 8.66 µM) | 0.8 (≈ 2.21 µM) | 0.8 (≈ 2.21 µM) | 0.8 (≈ 2.21 µM) | 0.8 (≈ 2.21 µM) | 0.8 (≈ 2.21 µM) | 
Cc1c(OCC(F)(F)C(F)F)ccnc1CSc1nc2ccccc2[nH]1 [JP-A 3-173817 compound (12), 2-[{3-Methyl-4-(2,2,3,3-tetrafluoropropoxy)pyrid-2-yl}methylthio]-1H-benzimidazole] |  |  |  |  |  |  |  |  |  |  |  |  |  |  |  | activity against all the tested strains
Cc1c(OCC(F)(F)C(F)(F)F)ccnc1CSc1nc2ccccc2[nH]1 [JP-A 3-173817 compound (13), 2-[{3-Methyl-4-(2,2,3,3,3-pentafluoropropoxy)pyrid-2-yl}methylthio]-1H-benzimidazole] |  |  |  |  |  |  |  |  |  |  |  |  |  |  |  | activity against all the tested strains
Cc1c(OCC(F)(F)C(F)(F)C(F)F)ccnc1CSc1nc2ccccc2[nH]1 [JP-A 3-173817 compound (14), 2-[{3-Methyl-4-(2,2,3,3,4,4-hexafluorobutoxy)pyrid-2-yl}methylthio]-1H-benzimidazole] |  |  |  |  |  |  |  |  |  |  |  |  |  |  |  | activity against all the tested strains
